These results are taken from patent publication US4419355A, “Condensed as-triazine derivatives and method of using the same” (Egyt Gyogyszervegyeszeti Gyar, priority 1980, dated 1983).

Data set [1] in a line: Acute toxicity on mice (oral). The following applies: mouse, in vivo, p.o., CFLP mice, 20 ml/kg, 4 days observation. On the procedure:
The acute toxicity of the new compounds according to the invention was determined on white mice of both sexes weighing 18-24 g belonging to the strain CFLP. Administration was effected with an oral dosage of 20 ml/kg. After treatment the animals were kept under observation for 4 days.

The subject of a further data set is yohimbine toxicity. The data set is described as follows: Potentiation of yohimbine toxicity on mice. The class given is in vivo. The following applies: for ED50: Mus musculus, po; for Therapeutic index LD50/ED50: p.o., mice, yohimbine potentiation. How it is done:
The experiments were carried out by the method of Quinton et al. The test compound was administered orally in a volume of 20 ml/kg half an hour before the administration of the standard yohimbine dose.

Data set [2] deals with tetrabenazine ptosis. The data set is described as follows: Tetrabenazine antagonism on mice. The following applies: for ED50: Mus musculus, po; for Therapeutic index LD50/ED50: p.o., mice, tetrabenazine antagonism.
Procedure: Groups of animals consisting of 10-20 mice each were examined. A 0.9% sodium chloride solution was administered to the mice of the control group in a dosage of 20 ml/kg. After 30 minutes 50 mg/kg of tetrabenazine were administered. The animals with closed interpalpebral zone were counted 30, 60, 90 and 120 minutes after the administration of the tetrabenazine. The data were summarized and the inhibition in comparison with the control was determined.
Data set [3] in a line: Acute toxicity on rats (oral). The settings on record: rat, in vivo, p.o., Wistar rats, 0.5% suspension with carboxymethylcellulose. How it is done: The acute toxicity was investigated also on Wistar rats. A 0.5% suspension prepared from the test compound and carboxymethylcellulose was administered orally to the animals.
The test system of data set [4] is tetrabenazine ptosis. The data set can be described thus: Tetrabenazine ptosis antagonism on rats. The following applies: for ED50: Rattus norvegicus, read-out: Tetrabenazine ptosis ant. ED50; for Therapeutic index: tetrabenazine ptosis ant. It counts as in vivo. How it is done: (§1) The experiments were carried out on the analogy of the tests described at point (a).

In data set [5] the test system is Reserpine-ethanol narcose. The data set can be described thus: Reserpine-ethanol narcose antagonism on rats. It counts as in vivo. The following applies: for ED50: Rattus norvegicus, read-out: Reserpine-ethanol narcose ant. ED50; for Ther. index: reserpine-ethanol narcose ant. On the procedure:
as §1

One may read the LD50 as the dose at which mortality reaches 50%. For orientation: ED50 means the dose that gives a 50% effect, or the effect in half of the subjects. Regarding `Clc1ccc(-c2ncn[n+]3ccccc23)cc1` [Compound B, 1-(4-chlorophenyl)-pyrido[2,1-f]-as-triazinium bromide], the LD50 at 96 h in data set [1] was 900 mg/kg. Besides, the 50% effective dose (ED50) was 50 mg/kg in the data set on yohimbine toxicity and 14 mg/kg in the data set on tetrabenazine ptosis [2]. The results for the “Therapeutic index LD50/ED50” value with yohimbine toxicity and in the data set with tetrabenazine ptosis [2] were 18.0 and 64.2, respectively.
`CN(C)CCC=C1c2ccccc2CCc2ccccc21` [Amitriptylin, reference compound]: the 50% lethal dose (LD50) at 96 h in data set [1] stood at 225 mg/kg. In data set [3], this compound displayed an LD50 of 530 mg/kg. Moreover, in the data set on tetrabenazine ptosis [4], the median effective dose (ED50) is 11.5 mg/kg and the Therapeutic index is 46.1. Besides, in data set [5], the 50% effective dose (ED50) is 40 mg/kg and the Ther. index came to 13.25. Further, in the data set on tetrabenazine ptosis [2], the ED50 came to 12 mg/kg and the “Therapeutic index LD50/ED50” value was found to be 18.75.
Consider `c1ccc(-c2ncn[n+]3ccccc23)cc1` [Compound A, 1-phenyl-pyrido[2,1-f]-as-triazinium bromide], for which the 50% lethal dose (LD50) at 96 h in data set [1] amounted to 1400 mg/kg. Also, in the data set on yohimbine toxicity, the 50% effective dose (ED50) turned out to be 66 mg/kg and the “Therapeutic index LD50/ED50” value is 21.2. Further, in the data set with tetrabenazine ptosis [2], the ED50 stood at 30 mg/kg and the “Therapeutic index LD50/ED50” value is recorded as 46.7.
With `Clc1ccc(-c2ncn[n+]3ccc4ccccc4c23)cc1` [Compound C, 1-(4-chlorophenyl)-as-triazino[6,1-a]-isoquinolinium bromide], the 50% lethal dose (LD50) at 96 h in data set [1] worked out at 600 mg/kg. Besides, the median lethal dose (LD50) in data set [3] stood at 1000 mg/kg. Moreover, in the data set on tetrabenazine ptosis [4], the ED50 was determined as 5.6 mg/kg and the Therapeutic index was 178.6. In data set [5], the ED50 stood at 40 mg/kg and the Ther. index turned out to be 25.0. Moreover, in the data set on yohimbine toxicity, the ED50 turned out to be 3.5 mg/kg and the “Therapeutic index LD50/ED50” value amounted to 171.4. Also, in the data set with tetrabenazine ptosis [2], the ED50 was determined as 3.2 mg/kg and the “Therapeutic index LD50/ED50” value is reported as 187.5.
